US20250188151A1, “C-JUN ANTAGONIST PEPTIDES” (The University of Bath, priority 2022, published 2025)
Each block holds one molecule with its values, some of them ahead of it. Bridge positions count the residues as written; N and C are the ends. Peptide text beside a SMILES is read from it.

Experiments:
cJun/TRE DNA interaction = target: T1, cJun/TRE DNA interaction (Homo sapiens, UniProt P05412, S292Y); experiment: CD cJun/TRE DNA antagonism (shift of TRE DNA peak at ~281 nm, Hill fit); assay type: biochemical
T1 construct: The same 60 amino acid c-Jun bZIP construct was used for all experiments; His-SUMO (N, cleaved yes); made in house; host or cells: E. coli
Text: Briefly, in TBS the coding region for the essential gene dihydrofolate reductase (DHFR) is mutated to incorporate TRE sites so that introduction of c-Jun to this gene inside E. coli produces a transcriptional block that abrogates cell proliferation. The TRE site-bound c-Jun molecules sterically prevent RNA polymerase transcribing the essential gene and this can only be restored upon introduction of an effective c-Jun/TRE antagonist. Consequently, the survival of a particular cell is controlled by the ability of a peptide library member to remove the c-Jun transcriptional block and therefore to restore DHFR activity. TBS thus facilitates the identification of therapeutically valuable sequences. Further details for the TBS assay are provided in WO2020128015, which is incorporated herein by reference in its entirety. […] The TRE-DNA construct produces a positive CD peak at ˜281 nm, which decreases in intensity upon c-Jun binding. […] This method allows for the calculation of an IC50 value by fitting the titration data to a Hill equation. In some embodiments, the c-Jun antagonist is able to inhibit the DNA-binding activity of c-Jun within 10-fold of the ability of HingeW to inhibit the DNA-binding activity of c-Jun (e.g. the c-Jun antagonist has a reduced ability to inhibit the DNA-binding activity of c-Jun that is within 10-fold of that determined for HingeW). In some embodiments, the c-Jun antagonist is able to inhibit the DNA-binding activity of c-Jun within 9-fold, preferably within 8-fold, more preferably within 7-fold, even more preferably within 6-fold, yet more preferably within 5-fold of the ability of HingeW to inhibit the DNA-binding activity of c-Jun. The ability of the c-Jun antagonist and HingeW to inhibit the DNA-binding activity may be measured using the TBS assay (e.g. by quantifying the number of colonies) or by determining the IC50 using a circular dichroism assay described herein. Optionally, the c-Jun antagonist may have this activity when cross-linked. Methods for cross-linking peptides are described in more detail below.
Therefore, the acidic domain was the initial focus for optimisation. 1 was iteratively truncated (2-6) to investigate the effect on c-Jun binding and c-Jun/TRE DNA antagonism. […] Thermal denaturation experiments were then used to determine the Tm of peptide-c-Jun heterodimers, which was used as an approximate measure of target engagement. CD was also used to investigate the ability of the functional activity of peptides in antagonising the c-Jun/TRE DNA interaction. The TRE-DNA construct used produces a positive CD peak at ˜281 nm (no c-Jun absorbance at this wavelength allows for direct measurement of DNA upon binding) which decreases in intensity upon c-Jun binding. […] This allowed for the calculation of an IC50 value by fitting the titration data to a Hill equation. […] The same 60 amino acid c-Jun bZIP construct was used for all experiments, regardless of antagonist peptide length.

Serum stability (LC-MS) = assay type: in vitro ADME; details: human serum; for remaining at 96 h, 30 μM / metabolised at 24 h, 30 μM: 37° C.; for remaining at 96 h, 30 μM: after 96 hours, read-out: peak intensities relative to starting values; for metabolised at 24 h, 30 μM: read-out: degraded
Method: Serum Stability: Peptide stocks (600 μM) were prepared in water and 50 μL added to 950 μL human serum (Merck) before incubation at 37° C. […] The supernatant was analysed by LC-MS and quantified using the sum of the two largest charge state intensities (1: 9+, 10+; 23,24: 3+, 4+).

cJun bZIP [1] = target: cJun bZIP (Homo sapiens, UniProt P05412, S292Y); experiment: CD spectra and thermal denaturation of peptide/cJun heterodimers; details: for Tm (° C.): peptide (5 μM)/c-Jun (5 μM) heterodimer, Table 6
Method: (§1) Circular Dichroism (CD): An Applied Photophysics Chirascan was used for CD measurements, with a 200 μL sample in a 1 mm path length CD cell. Protein/DNA samples were suspended in 150 mM potassium phosphate, 150 mM potassium fluoride and 5 mM TCEP at pH 7.4 and were equilibrated for 30 minutes before measurement. […] These scans were averaged and converted to molar residue ellipticities (MRE). Thermal denaturation experiments were performed by measuring the ellipticity at 222 nm over a 1 to 90° C. gradient at 1° C. increments. Post-melt scans at 20° C. confirmed the transitions were reversible as they overlaid within 10% of the pre-melt scan.
(§2) Circular Dichroism (CD): An Applied Photophysics Chirascan was used for CD measurements, with a 200 μL sample in a 1 mm path length CD cell. Protein/DNA samples were suspended in 150 mM potassium phosphate, 150 mM potassium fluoride and 5 mM TCEP at pH 7.4 and were equilibrated for 30minutes before measurement. […] Thermal denaturation experiments were performed by measuring the ellipticity at 222 nm over a 1 to 90° C. gradient at 1° C. increments. Post-melt scans at 20° C. confirmed the transitions were reversible as they overlaid within 10% of the pre-melt scan.
(§3) Peptide helicity was determined by quantifying the CD signal at 222 nm of peptide only samples. Thermal denaturation experiments were then used to determine the Tm of peptide-c-Jun heterodimers, which was used as an approximate measure of target engagement. […] The same 60 amino acid c-Jun bZIP construct was used for all experiments, regardless of antagonist peptide length.

[2] = CD spectra and thermal denaturation of peptide-only samples (helicity, homodimer Tm)
Method: as §1, §2, §3

cJun = cJun (Homo sapiens, UniProt P05412, S292Y); experiment: Isothermal titration calorimetry, Example 2 (PEAQ-ITC); assay type: binding; parameters: The same 60 amino acid c-Jun bZIP construct was used for all experiments; His-SUMO (N, cleaved yes); made in house; host or cells: E. coli; details: for ΔG / ΔH / −TΔS / Stoichiometry, n: ITC; for Stoichiometry, n: c-Jun-peptide interaction
Method: 2 μL injections of antagonist peptide at 25-200 μM were injected into the cell containing cJun at 2.5-20 μM. Software was used to record and analyse the heat change upon addition. Control experiments involved the injection of the antagonist peptide sample into the cell containing ITC buffer alone to determine the heat of dilution which was subtracted. The resulting binding data were fit to a one site binding model to extract the enthalpy change of binding (ΔH) and the equilibrium binding constant (KD), from which the free energy change of binding (ΔG) and the entropy change of binding (ΔS) was calculated (Wiseman et al., 1989). Thermodynamic parameters are presented as an average of two independent experiments with errors given as one standard deviation.

cJun bZIP [3] = target: T2, cJun bZIP (human, UniProt P05412 252-308, limits assumed); experiment: CD thermal denaturation
T2 construct: Purified from a His-SUMO fusion with the tag cleaved off; also called c-Jun bZIP domain; 60 amino acid c-Jun bZIP construct
T2 chain: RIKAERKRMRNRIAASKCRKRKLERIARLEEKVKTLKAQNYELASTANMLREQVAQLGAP

cJun bZIP [4] = target: T2, cJun bZIP; experiment: cell-based or functional assay
cJun bZIP [5] = target: T2, cJun bZIP; experiment: CD thermal denaturation, peptide 5 µM and c-Jun 5 µM
cJun bZIP [6] = target: T2, cJun bZIP; experiment: ITC (PEAQ-ITC), peptide injected into cJun, one site model

Molecule: CC[C@H](C)[C@H](NC(=O)[C@H](CCC(=O)O)NC(=O)[C@H](CCCCN)NC(=O)[C@H](CCCNC(=N)N)NC(=O)[C@H](CC(C)C)NC(=O)[C@H](C)NC(=O)[C@H](Cc1ccc(O)cc1)NC(=O)[C@H](CC(N)=O)NC(=O)[C@H](CCCNC(=N)N)NC(=O)[C@H](CCC(=O)O)NC(=O)[C@H](CCC(=O)O)NC(=O)[C@H](CC(C)C)NC(=O)[C@H](CCC(N)=O)NC(=O)[C@H](CCC(=O)O)NC(=O)[C@@H](NC(=O)[C@H](CCC(=O)O)NC(=O)[C@H](CCC(=O)O)NC(=O)[C@H](CCC(=O)O)NC(=O)[C@H](CC(C)C)NC(=O)[C@@H](NC(=O)[C@H](CC(=O)O)NC(=O)[C@H](CCC(=O)O)NC(=O)[C@H](CCC(=O)O)NC(=O)[C@@H](NC(=O)[C@@H](NC(=O)[C@H](CC(C)C)NC(=O)[C@H](CCC(=O)O)NC(=O)[C@H](CCC(=O)O)NC(=O)[C@H](C)NC(=O)[C@H](CCC(=O)O)NC(C)=O)C(C)C)C(C)C)C(C)C)[C@@H](C)CC)C(=O)N[C@H]1CCCCNC(=O)C[C@@H](C(=O)N[C@@H](CCC(N)=O)C(N)=O)NC(=O)[C@H](CCC(N)=O)NC(=O)[C@H](CC(C)C)NC(=O)[C@H](CC(=O)O)NC1=O [Peptide 23] (Ac-EAEELVVEEDVLEEEIEQLEERNYALRKEIKDLQDQ-NH2; lactam 31-35 (inferred))
- fold lower IC50 than 11 (cJun/TRE DNA interaction; P=0.003): 1.6 fold
- remaining at 96 h, 30 μM (Serum stability (LC-MS)): 17%
- metabolised at 24 h, 30 μM (Serum stability (LC-MS)): 21%
- heterodimer ΔTm compared to parent sequence 11 (cJun bZIP [1]): ~8 °C
- heterodimer ΔTm from lactamisation (cJun bZIP [1]; cyclised vs its linear form): ~9 °C
- Tm (° C.) (cJun bZIP [1]): 65.0 ± 1.4 °C
- change in fraction helicity from lactamisation ([2]; cyclised vs its linear form): ~8%
- Kd (cJun): 86.6 ± 17 nM
- ΔG (cJun): -40.42 ± 0.49 kJ/mol
- ΔH (cJun): -98.74 ± 2.54 kJ/mol
- −TΔS (cJun): 58.37 ± 2.59 kJ/mol
- Stoichiometry, n (cJun): 0.97 ± 0.02

B2: HingeW variant peptide 15 (peptide)
peptide: Ac-EAKELVDEEDVLEEEIEQLEERNYALRKEIEDLQKQ-NH2
modifications: lactam 3-7
notes: Synthetic, NΔ20 CΔ7; also called cyclised form of 14/15
- heterodimer ΔTm from lactamisation (15 against linear 14) (cJun bZIP [3]): ~2 ° C.
- IC50 CD (cJun bZIP [4]): 81.1 µM
- Tm (° C.) of peptide-c-Jun heterodimer (cJun bZIP [5]): 59.4 ° C.

B3: HingeW variant peptide 17 (peptide)
peptide: Ac-EAEELVVEEKVLEDEIEQLEERNYALRKEIEDLQKQ-NH2
modifications: lactam 10-14
SMILES: CC[C@H](C)[C@H](NC(=O)[C@H](CCC(=O)O)NC(=O)[C@H](CCCCN)NC(=O)[C@H](CCCNC(=N)N)NC(=O)[C@H](CC(C)C)NC(=O)[C@H](C)NC(=O)[C@H](Cc1ccc(O)cc1)NC(=O)[C@H](CC(N)=O)NC(=O)[C@H](CCCNC(=N)N)NC(=O)[C@H](CCC(=O)O)NC(=O)[C@H](CCC(=O)O)NC(=O)[C@H](CC(C)C)NC(=O)[C@H](CCC(N)=O)NC(=O)[C@H](CCC(=O)O)NC(=O)[C@@H](NC(=O)[C@H](CCC(=O)O)NC(=O)[C@@H]1CC(=O)NCCCC[C@H](NC(=O)[C@H](CCC(=O)O)NC(=O)[C@H](CCC(=O)O)NC(=O)[C@@H](NC(=O)[C@@H](NC(=O)[C@H](CC(C)C)NC(=O)[C@H](CCC(=O)O)NC(=O)[C@H](CCC(=O)O)NC(=O)[C@H](C)NC(=O)[C@H](CCC(=O)O)NC(C)=O)C(C)C)C(C)C)C(=O)N[C@@H](C(C)C)C(=O)N[C@@H](CC(C)C)C(=O)N[C@@H](CCC(=O)O)C(=O)N1)[C@@H](C)CC)C(=O)N[C@@H](CCC(=O)O)C(=O)N[C@@H](CC(=O)O)C(=O)N[C@@H](CC(C)C)C(=O)N[C@@H](CCC(N)=O)C(=O)N[C@@H](CCCCN)C(=O)N[C@@H](CCC(N)=O)C(N)=O
notes: Synthetic, NΔ20 CΔ7; also called cyclised form of 16/17
- increase in cJun heterodimer Tm from its linear form 16 (cJun bZIP [3]): ~9 ° C.
- IC50 CD (cJun bZIP [4]): 74.9 µM
- Tm (° C.) of peptide-c-Jun heterodimer (cJun bZIP [5]): 64 ° C.
- -TΔS (cJun bZIP [6]): 18.1 kJ/mol
- Kd (cJun bZIP [6]): 69.5 nM
- Stoichiometry, n (cJun bZIP [6]): 1.2
- ΔG (cJun bZIP [6]): -40.9 kJ/mol
- ΔH (cJun bZIP [6]): -59 kJ/mol

Second part, led by results:

- change in IC50 compared to the best single lactamised peptide (cJun/TRE DNA interaction; P=0.02): significant decrease in IC50 value
- remaining at 96 h, 30 μM (Serum stability (LC-MS)): 35%
- metabolised at 24 h, 30 μM (Serum stability (LC-MS)): 7%
- serum stability (Serum stability (LC-MS); LC-MS): highest stability
- change in heterodimer Tm compared to the best single lactamised peptide (cJun bZIP [1]): no significant change in heterodimer Tm
- Tm (° C.) (cJun bZIP [1]): 63.2 ± 1.3 °C
- increase in peptide helicity from 1 [2]: 20%
- more helical compared to the best single lactamised peptide [2]: ~4%
- ΔG (cJun): -45.81 ± 1.01 kJ/mol
- ΔH (cJun): -127.82 ± 2.61 kJ/mol
- −TΔS (cJun): 82.01 ± 2.80 kJ/mol
- Stoichiometry, n (cJun): 1.05 ± 0.01
Molecule: CC[C@H](C)[C@H](NC(=O)[C@H](CCC(=O)O)NC(=O)[C@H](CCCCN)NC(=O)[C@H](CCCNC(=N)N)NC(=O)[C@H](CC(C)C)NC(=O)[C@H](C)NC(=O)[C@H](Cc1ccc(O)cc1)NC(=O)[C@H](CC(N)=O)NC(=O)[C@H](CCCNC(=N)N)NC(=O)[C@H](CCC(=O)O)NC(=O)[C@H](CCC(=O)O)NC(=O)[C@H](CC(C)C)NC(=O)[C@H](CCC(N)=O)NC(=O)[C@H](CCC(=O)O)NC(=O)[C@@H](NC(=O)[C@H](CCC(=O)O)NC(=O)[C@@H]1CC(=O)NCCCC[C@H](NC(=O)[C@H](CCC(=O)O)NC(=O)[C@H](CCC(=O)O)NC(=O)[C@@H](NC(=O)[C@@H](NC(=O)[C@H](CC(C)C)NC(=O)[C@H](CCC(=O)O)NC(=O)[C@H](CCC(=O)O)NC(=O)[C@H](C)NC(=O)[C@H](CCC(=O)O)NC(C)=O)C(C)C)C(C)C)C(=O)N[C@@H](C(C)C)C(=O)N[C@@H](CC(C)C)C(=O)N[C@@H](CCC(=O)O)C(=O)N1)[C@@H](C)CC)C(=O)N[C@H]1CCCCNC(=O)C[C@@H](C(=O)N[C@@H](CCC(N)=O)C(N)=O)NC(=O)[C@H](CCC(N)=O)NC(=O)[C@H](CC(C)C)NC(=O)[C@H](CC(=O)O)NC1=O [Peptide 24] (Ac-EAEELVVEEKVLEDEIEQLEERNYALRKEIKDLQDQ-NH2; lactam 10-14, 31-35 (inferred))

- IC50 CD (cJun bZIP [4]): 92.5 µM
B1: HingeW variant peptide 13 (peptide)
peptide: Ac-KEAEDLVVEEDVLEEEIEQLEERNYALRKEIKDLQDQ-NH2
modifications: lactam (positions not given here); also: one i to i+4 K-D lactam bridge, pair not given here
notes: Synthetic, NΔ19 CΔ7; also called cyclised form of 12/13
- heterodimer ΔTm against parent sequence 11 (cJun bZIP [3]): ~1 ° C.
- Tm (° C.) of peptide-c-Jun heterodimer (cJun bZIP [5]): 58.5 ° C.
